Reference: US6653280B2, “Antifungal polypeptide AlyAFP from Alyssum and methods for controlling plant pathogenic fungi” (Monsanto Technology LLC, priority 1996, dated 2003)
Like-named read-outs stand apart in the source and are kept apart here.

Legend:
Verticillium dahliae [1] = experiment: Antifungal activity: inhibition of fungal hyphal growth (microscopy); assay type: cell-based; settings: V. dahliae
Protocol: (§1) The antifungal activity of AlyAFP can be expressed as the concentration thereof in μg/ml required to cause 50% inhibition of fungal hyphal growth (IC50). Percent fungal hyphal growth inhibition is defined as 100×the ratio of the average hyphae length in the test sample culture divided by the average hyphae length in the control culture in which buffer is added in place of the polypeptide sample.
(§2) The antifungal activity of AlyAFP was determined by measuring the inhibition of fungal hyphal length of a number of different fungi in the presence of this polypeptide under an inverted microscope. Fungal spores (2×10^4 spores/ml) were allowed to germinate for 5 to 15 hours, depending on the fungus used in the test, in 50 μl of double strength testing medium. […] For experiments on the antagonistic effect of cations, CaCl2 and KCl were added to final concentrations of 1 mM and 50 mM, respectively. This salt-supplemented medium is refered to as “high salt medium,” and the original medium is refered to as “low salt medium.” After spore germination, 50 μl of a filter-sterilized solution of polypeptide in distilled water were added to the testing well containing the germinated spores, and the mixture was incubated for 15 to 24 hours at 24° C. […] Polypeptide concentrations were determined using the BCA protein assay kit obtained from Pierce (Rockford, Ill.).

Verticillium dahliae [2] = experiment: Verticillium wilt disease test on transgenic potato plants expressing the polypeptide; assay type: in vivo, potato (Solanum tuberosum var. Russet Burbank); settings: for Disease Severity (%) (44 Days Post Inoc.): average of 3 replicates; for Verticillium wilt resistance conferred to potato plants: expression levels as high as 25 μg/g fresh leaf tissue; for Disease Severity (%) (58 Days Post Inoc.): average of three replicates; for difference in disease progress between expressing lines and control lines: rated at 49, 58, and 64 days post inoculation
Protocol: Conidia and mycelia of a 2-3 week old culture of virulent Verticillium dahliae were used to inoculate a PDA (potatoes, 200 g/l; Bacto dextrose, 20 g/l; and Bacto agar, 15 g/l ) Petri plate. This culture was allowed to grow at 22° C. for 4-5 days. Conidia were then harvested by washing the culture plate with sterile distilled water and filtering the liquid through two layers of cheesecloth. The conidial spore concentration was determined using a hemacytometer, and adjusted to 1×10^6 conidia/ml with sterile distilled water.
Transgenic and non-transgenic potato plants were grown from stem cuttings under sterile conditions as described above in plastic cups containing 50 mls of PM-agar medium. When plants were about 1-2 inches tall, they were removed from the medium and their roots were dipped in the spore suspension (Joaquim et al. (1991) Phytopathology 81:552-558). The inoculated plants were then transplanted into 6-inch pots containing Metro-Mix 350. After transplanting, each plant received an additional 5mls of the spore suspension on the soil surface around the base of the stem. The pots were placed in a growth chamber under the following conditions: temperature at 20° C., light intensity at 320 μEinstein/sec/cm^2, 12 hr day/12 hr night light cycle, subirrigation with water 2 times/day, 20 minutes soaking each time. Four weeks after inoculation, the plants were scored for disease severity on a scale of 0-100% (Horsfall et al. (1945) Phytopathology 35:655). To develop a disease progress curve over time, plants were rated once a week for at least 8 weeks.
Table 3 summarizes the protein expression level in each of the lines, and the disease severity rating of each individual line in the test determined at 44 days post inoculation. The disease severity rating was the average of 3 replicates. For convenience, the same disease data are also presented as a bar graph in FIG. 11. The order of appearance of each potato line in Table 3 (from top to bottom) and in FIG. 11 (from left to right) is the same.
In this test, disease symptoms appeared in the experimental and control plants at approximately 49 days post inoculation. Disease progress was rated at 49, 58, and 64 days post inoculation. […] The disease severity rating was the average of three replicates. Table 4 summarizes the protein expression level in each of the lines, and the disease severity rating of each individual line determined at 58 days post inoculation. For convenience, the same disease data are also presented as a bar graph in FIG. 12. The order of appearance of each potato line in Table 4 (from top to bottom) and in FIG. 12 (from left to right) is the same.

[3] = ELISA of antifungal polypeptide expression in leaves of transgenic potato plants; parameters: species or system potato (Solanum tuberosum var. Russet Burbank); settings: 3 transgenic potato lines
Protocol: Leaf samples (20 to 100 mg) were taken from transgenic plants grown to 1 to 2 inches in height. The leaf samples were ground in PBST buffer (15 μl/mg tissue) containing 1 mM KH2PO4, 10 mM Na2HPO4, 137 mM NaCl, 2.7 mM KCl, pH 7.4, and 0.05% Tween-20, and allowed to sit at 4° C. overnight. After centrifugation, 100 μl of the supernatant were used in an ELISA assay. Polyclonal antibodies against Rs-AFP1 polypeptide (SEQ ID NO:18) were prepared by Pocono Rabbit Farm (Pocono, Pa.). Wells of a Nunc Maxi-sorp 96 well plate (Nunc #4-39454) were coated with antibodies against Rs-AFP1 polypeptide by adding 100 μl of antibodies (1 mg IgG/ml) diluted 1:200 in coating buffer containing 1.59 g Na2CO3 and 2.93 g NaHCO3 per liter distilled water, pH 9.6, and incubating at 4° C. overnight. The coating solution was then removed from the wells, which were then washed three times with PBST. One hundred μl of leaf supernatant or appropriately diluted polypeptide standards in PBST supplemented with 0.2% (w/v) BSA, fraction V (Sigma, St. Louis) were added to the wells. The concentration of each polypeptide in extracts from transgenic plants was determined from standard curves constructed using varying amounts of the respective purified polypeptide. […] The optical density at 405 nm was determined using a Thermo-max microplate reader (Molecular Devices, Menlo Park, Calif.). […]

Fusarium culmorum [4] = settings: F. culmorum
Protocol: as §1, §2

Fusarium culmorum [5] = settings: F. culmorum, comparison peptides disclosed in WO 93/05153, cited from earlier work
Verticillium dahliae [6] = settings: V. dahliae, comparison peptides disclosed in WO 93/05153, cited from earlier work
[7] = high salt medium (1 mM CaCl2, 50 mM KCl)
[8] = 58 days post inoc., average of the 5 expressing lines marked +, vector control 60.0

## AlyAFP: antifungal polypeptide of 50 amino acids obtainable from flowers of Alyssum, SEQ ID NO:2 (RLCERPSGTWSGVCGNNNACRNQCRNLERAEHGSCNYVFPAHKCICYFPC)
Verticillium dahliae [1]; [7]
  IC50: <5 µg/mL
Verticillium dahliae [1]; low salt medium
  IC50: <1 µg/mL
Verticillium dahliae [2]; 44 days post inoc., average of the 8 high and medium expressing lines marked +, vector control 39.2
  Average Dis. Sev.: 14.9%
Verticillium dahliae [2]; average of 8 high and medium expressing lines vs average of 3 vector control lines, 44 days
  disease severity less than that of the vector control: 62%
Verticillium dahliae [2]; best high expressing lines #17575 and #17587, 44 days
  disease severity less than that of the vector control: 82%
Verticillium dahliae [2]; low expressing lines (0.9 to 1.1 μg/g fresh leaf tissue)
  disease resistance as compared to the vector controls: did not exhibit any significant level of disease resistance
Verticillium dahliae [2]; potato line 17575, 14.9 μg AFP/g tissue
  Disease Severity (%) (44 Days Post Inoc.): 7.5%
Verticillium dahliae [2]; potato line 17578, 12.7 μg AFP/g tissue
  Disease Severity (%) (44 Days Post Inoc.): 15%
Verticillium dahliae [2]; potato line 17580, 0.9 μg AFP/g tissue
  Disease Severity (%) (44 Days Post Inoc.): 33.3%
Verticillium dahliae [2]; potato line 17581, 9.2 μg AFP/g tissue
  Disease Severity (%) (44 Days Post Inoc.): 24.3%
Verticillium dahliae [2]; potato line 17587, 9.6 μg AFP/g tissue
  Disease Severity (%) (44 Days Post Inoc.): 6.3%
Verticillium dahliae [2]; potato line 17589, 1.1 μg AFP/g tissue
  Disease Severity (%) (44 Days Post Inoc.): 43.8%
Verticillium dahliae [2]; potato line 17592, 2.6 μg AFP/g tissue
  Disease Severity (%) (44 Days Post Inoc.): 11.8%
Verticillium dahliae [2]; potato line 17593, 2.6 μg AFP/g tissue
  Disease Severity (%) (44 Days Post Inoc.): 17.3%
Verticillium dahliae [2]; potato line 17595, 5.2 μg AFP/g tissue
  Disease Severity (%) (44 Days Post Inoc.): 21%
Verticillium dahliae [2]; potato line 17618, 2.6 μg AFP/g tissue
  Disease Severity (%) (44 Days Post Inoc.): 16.3%
Verticillium dahliae [2]; transgenic potato plants
  expression level at which potato plants exhibit resistance to Verticillium wilt: ≥ 2.6 μg/g fresh leaf tissue
[3]
  expression level, medium expressers: 2.6 μg AlyAFP/g fresh leaf tissue
Fusarium culmorum [4]; [7]
  IC50: <10 µg/mL
Fusarium culmorum [4]; low salt medium
  IC50: <2 µg/mL

## Rs-AFP2: small cysteine-rich antifungal protein isolated from radish seed (WO 93/05153), SEQ ID NO:19 (QKLCQRPSGTWSGVCGNNNACKNQCIRLEKARHGSCNYVFPAHKCICYFPC)
Verticillium dahliae [2]; [8]
  Average Dis. Sev.: 64.0%
Verticillium dahliae [2]
  Verticillium wilt resistance conferred to potato plants: did not provide any significant level of Verticillium wilt resistance
  difference in disease progress between expressing lines and control lines: No differences
Verticillium dahliae [2]; potato line 13500, 10.8 μg AFP/g tissue
  Disease Severity (%) (58 Days Post Inoc.): 82.5%
Verticillium dahliae [2]; potato line 13501, 25.2 μg AFP/g tissue
  Disease Severity (%) (58 Days Post Inoc.): 76.3%
Verticillium dahliae [2]; potato line 13503, 25.1 μg AFP/g tissue
  Disease Severity (%) (58 Days Post Inoc.): 53.8%
Verticillium dahliae [2]; potato line 13531, 16.2 μg AFP/g tissue
  Disease Severity (%) (58 Days Post Inoc.): 72.5%
Verticillium dahliae [2]; potato line 13532, 17.5 μg AFP/g tissue
  Disease Severity (%) (58 Days Post Inoc.): 35.0%
Fusarium culmorum [5]; high salt
  IC50: 5 µg/mL
Fusarium culmorum [5]; low salt
  IC50: 2 µg/mL
Verticillium dahliae [6]; high salt
  IC50: 50 µg/mL
Verticillium dahliae [6]; low salt
  IC50: 1.5 µg/mL

## Rs-AFP1: small cysteine-rich antifungal protein isolated from radish seed (WO 93/05153), SEQ ID NO:18 (QKLCERPSGTWSGVCGNNNACKNQCINLEKARHGSCNYVFPAHKCICYFPC)
Verticillium dahliae [2]; [8]
  Average Dis. Sev.: 59.8%
Verticillium dahliae [2]
  Verticillium wilt resistance conferred to potato plants: did not provide any significant level of Verticillium wilt resistance
  difference in disease progress between expressing lines and control lines: No differences
Verticillium dahliae [2]; potato line 15117, 9.7 μg AFP/g tissue
  Disease Severity (%) (58 Days Post Inoc.): 47.5%
Verticillium dahliae [2]; potato line 15120, 8.0 μg AFP/g tissue
  Disease Severity (%) (58 Days Post Inoc.): 50.0%
Verticillium dahliae [2]; potato line 15124, 26 μg AFP/g tissue
  Disease Severity (%) (58 Days Post Inoc.): 56.3%
Verticillium dahliae [2]; potato line 15143, 18.3 μg AFP/g tissue
  Disease Severity (%) (58 Days Post Inoc.): 78.8%
Verticillium dahliae [2]; potato line 15154, 5.2 μg AFP/g tissue
  Disease Severity (%) (58 Days Post Inoc.): 66.3%
Fusarium culmorum [5]; high salt
  IC50: 70 µg/mL
Fusarium culmorum [5]; low salt
  IC50: 5 µg/mL
Verticillium dahliae [6]; high salt
  IC50: >100 µg/mL
Verticillium dahliae [6]; low salt
  IC50: 5 µg/mL
